Laboratory results: US5808139A (Ligand Pharmaceuticals Incorporated, priority 1994, dated 1998)

Experiments:
[1] = system: human progesterone receptor altered at the Tau-1 location; experiment: Co-transfection assay in CV-1 cells, progesterone receptor altered at Tau-1, antagonist activity; format: cell-based; settings: for Efficacy (% maximal response relative to RU-486), CV-1 cells: antagonist activity; for IC50: concentration required to reduce the maximal response by 50%, read-out: Potency (IC50), CV-1 cells
Source text: This assay is described in further detail in U.S. Pat. Nos. 4,981,784 and 5,071,773, which are incorporated herein by reference. The co-transfection assay provides a method for identifying functional ligands (either agonists which mimic, or antagonists which inhibit, the effect of hormones) for ligand-responsive receptor proteins.
The co-transfection assay provides a mechanism to evaluate ability of a compound to function as an agonist or antagonist of the activity modulated by an intracellular receptor. The co-transfection assay mimics an in vivo system in the laboratory. In the co-transfection assay, a cloned gene for an intracellular receptor is introduced by transfection (a procedure to induce cells to take up foreign genes) into a background cell substantially devoid of endogenous intracellular receptors. This introduced gene directs the recipient cells to make the intracellular receptor protein. A second gene is also introduced (co-transfected) into the same cells in conjunction with the intracellular receptor gene. This second gene functions as a reporter for the transcription-modulating activity of the target intracellular receptor. The reporter acts as a surrogate for the products normally expressed by a gene under control of the target receptor and its natural hormone.
A preferred reporter gene is one which expresses the firefly enzyme luciferase. The co-transfection assay can detect small molecule agonists or antagonists of target intracellular receptors. Exposing the cells to an agonist ligand increases reporter activity in the transfected cells that can be conveniently measured, reflecting ligand-dependent, intracellular receptor-mediated increases in reporter transcription. To detect antagonists, the co-transfection assay is carried out in the presence of a constant concentration of an agonist known to induce a defined reporter signal. Increasing concentrations of a test antagonist will decrease the reporter signal. The co-transfection assay is therefore useful to detect both agonists and antagonists of specific intracellular receptors. It determines not only whether a compound interacts with a particular intracellular receptor, but also whether this interaction mimics (agonizes) or blocks (antagonizes) the effects of the natural regulatory molecules on target gene expression.
Co-transfected cells are exposed to a medium to which is added the potential ligand that is being evaluated. If the candidate ligand diffuses into the cell and binds to the receptor and the resulting complex functions as an agonist, it binds to the co-transfected reporter gene and initiates transcription. When that gene is one that expresses, for example, luciferase, luciferase is produced which catalyzes a light-emitting reaction with its substrate luciferin. Thus, after cell lysis and the introduction of luciferin, the amount of light produced relative to the concentration of candidate ligand used in the assay provides a measure of the potency and efficacy of the compound tested. Antagonist activity is evaluated by adding the candidate ligand and a known agonist to the co-transfected cells.
The receptor cDNA was introduced in a mammalian expression vector under the control of the Rous Sarcoma virus LTR. […] A reporter vector was also transfected, containing a firefly luciferase gene under the control of the hormone-responsive promoter. […] The level of luciferase activity was then measured in cell extracts. Light emission is directly proportional to the effectiveness of the hormone-receptor complex in activating gene expression.
A total of three replicates per concentration point were tested for each compound, and the EC50 was calculated for each positive response. Both agonist and antagonist activity for each test compound was determined in parallel. […]

[2] = target: T1, human progesterone receptor (Homo sapiens, UniProt P06401); experiment: Progesterone receptor binding (displacement of 3H-progesterone, whole cell extract of transfected CV-1 cells); parameters: expressed in transfected cells; host or cells: CV-1 cells (calcium phosphate transfection), whole cell extract
T1 sequence (P06401 1-933): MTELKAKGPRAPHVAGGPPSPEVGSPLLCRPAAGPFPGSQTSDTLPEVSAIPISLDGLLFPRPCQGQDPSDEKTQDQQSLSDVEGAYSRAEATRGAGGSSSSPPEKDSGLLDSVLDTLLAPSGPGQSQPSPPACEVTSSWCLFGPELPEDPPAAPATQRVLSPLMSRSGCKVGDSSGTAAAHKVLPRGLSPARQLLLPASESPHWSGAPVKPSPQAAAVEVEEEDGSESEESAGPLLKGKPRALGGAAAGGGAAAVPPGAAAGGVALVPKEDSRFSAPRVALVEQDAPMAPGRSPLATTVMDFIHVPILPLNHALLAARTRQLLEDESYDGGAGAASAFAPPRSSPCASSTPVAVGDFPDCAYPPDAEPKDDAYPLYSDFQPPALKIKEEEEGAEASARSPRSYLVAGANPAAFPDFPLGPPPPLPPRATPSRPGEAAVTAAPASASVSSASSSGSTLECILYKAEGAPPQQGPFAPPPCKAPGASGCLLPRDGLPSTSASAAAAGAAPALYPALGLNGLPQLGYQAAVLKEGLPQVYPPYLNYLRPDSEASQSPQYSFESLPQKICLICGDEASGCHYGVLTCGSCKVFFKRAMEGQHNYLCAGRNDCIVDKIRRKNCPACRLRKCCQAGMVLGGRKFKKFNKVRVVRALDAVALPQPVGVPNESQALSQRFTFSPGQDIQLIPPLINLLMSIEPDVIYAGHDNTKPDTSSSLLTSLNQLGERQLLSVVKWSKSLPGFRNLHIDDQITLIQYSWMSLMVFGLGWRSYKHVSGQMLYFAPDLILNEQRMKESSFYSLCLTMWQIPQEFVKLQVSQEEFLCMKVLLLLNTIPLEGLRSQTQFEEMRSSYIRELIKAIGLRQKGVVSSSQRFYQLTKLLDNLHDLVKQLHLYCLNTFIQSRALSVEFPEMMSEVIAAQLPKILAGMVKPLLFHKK
Procedure: These tests were conducted according to the following illustrative example.
CO2 for 40 hours prior to harvest.
After incubation, cells were harvested and washed in phosphate buffered saline. Whole cell receptor extract was prepared by homogenizing the harvested cells in Tris-HCl buffer, pH=7.4, containing 30% glycerol, 1 mM EDTA, 12 mM monothioglycerol, 1 mM PMSF, and 0.5M potassium chloride. The homogenate was incubated at 4° C. for 60 min with resuspension every 10 min. The suspension was centrifuged (105,000×g, 60 min) and the supernatant was collected and flash frozen in liquid nitrogen and stored frozen at -70° C.
To a […] final volume incubation mixture, […] of 7.5% (w/v) dextran-coated charcoal suspension in gelatin phosphate buffer was added. The mixture was vortexed and incubated at 4° C. for 10 min and then centrifuged at 3000 rpm for 10 min. The amount of bound tritiated hormone was determined by liquid scintillation spectrophotometry of an aliquot of the supernatant. […]

[3] = system: progesterone receptor (T47D cells); experiment: Antagonist assay in T47D (human breast cancer) cells (Tables 1 and 2); format: cell-based; settings: for Efficacy (% maximal response relative to RU-486), T47D cells: antagonist activity; for IC50: concentration required to reduce the maximal response by 50%, read-out: Potency (IC50), T47D cells
Source text: The functional activities of the cyclocymopol analogues in the human breast cell line, T47D, were also investigated. T47D cells have proven to be a particularly useful model to investigate the molecular actions of sex steroids because they contain endogenous functional receptors for, and respond to, progestins, and their respective antagonists. […] In T47D cells, progestins induce de novo synthesis of a plasma-associated alkaline phosphatase, which has been reported to be similar, if not identical, to the alkaline phosphatase present in the normal breast and human milk. These tests were conducted according to the following illustrative example.
The assay was also run using T47D (human breast cancer) cells.

Row | IC50 [1] | Kd [2] | IC50 [3] | Structure (SMILES) | Efficacy (% maximal response relative to RU-486), CV-1 cells [1] | Efficacy (% maximal response relative to RU-486), T47D cells [3]
1 | 5140 nM | 28 nM | 7190 nM | C=C1C[C@H](C)CC(C)(C)[C@@H]1Cc1cc(OC)c(Br)cc1O (relative stereo) [BB, cis-1-Methylidene-2-(2'-hydroxy-4'-bromo-5'-methoxyphenyl)methyl-3,3,5-trimethyleyclohexane] | 38% | 41%
2 | 3000 nM | 2310 nM | 1100 nM | C=C1C[C@@](C)(CO)CC(C)(C)[C@@H]1Cc1cc(OC)c(Br)cc1O (relative stereo) [HH, trans-1-Methylidene-2-(2'-hydroxy-4'-bromo-5'-methoxyphenyl)methyl-3,3,5-trimethyl-5-(hydroxymethyl)cyclohexane] | 85% | 81%
3 | 30 nM | 625 nM | 3600 nM | C=C1C=C(C)[C@@H](CCO)C(C)(C)[C@@H]1Cc1cc(OC)c(Br)cc1O (relative stereo) [JJ, trans-1-Methylidene-4-(2-hydroxy)ethyl-6-(2'-hydroxy-4'-bromo-5'-methoxyphenyl)methyl-3,5,5-trimethylcyclohex-2-ene] | 48% | 74%
4 | 1600 nM | 346 nM | 1300 nM | C=C1C=C[C@@H](C)C(C)(C)[C@@H]1Cc1cc(OC)c(Br)cc1O (relative stereo) [KK, trans-1-Methylidene-6-(2'-hydroxy-4'-bromo-5'-methoxyphenyl)methyl-4,5,5-trimethylcyclohex-2-ene] | 75% | 76%
5 | 1600 nM | 269 nM | 500 nM | C=C1CC[C@@H](C)C(C)(C)[C@@H]1Cc1cc(OC)c(Br)cc1O (relative stereo) [LL, trans-1-Methylidene-2-(2'-hydroxy-4'-bromo-5'-methoxyphenyl)methyl-3,3,4-trimethylcyclohexane] | 91% | 74%
6 |  |  |  | C=C1CCCC(C)(C)C1Cc1cc(OC)c(Br)cc1O (stereo in doubt) [G, (3S)-1-Debromocyclocymopol monomethyl ether] | 45% | 50%
7 | 660 nM |  | 210 nM | C=C1C(C)=CCC(C)(C)C1Cc1cc(OC)c(Br)cc1OC(C)=O (stereo in doubt) [Z, (3R)-5-Methyl-5,6-dehydro-1-debromocyclocymopol monomethyl ether, acetate] | 83% | 81%
8 |  |  |  | C=C1CCCC(C)(C)C1Cc1cc(OC)c(Br)cc1O (stereo not drawn) [C, 1-Methylidene-2-(2'-hydroxy-4'-bromo-5'-methoxy-phenyl)methyl-3.3-dimethylcyclohexane] | 55% | 70%
9 | 1950 nM |  | 775 nM | C=C1C=C(C)CC(C)(C)C1Cc1ccc2nonc2c1 (stereo not drawn) [FF, 1-Methylidene-6-(benzofurazan-5'-yl)methyl-3,5,5-trimethylcyclohex-2-ene] | 72% | 71%
10 | 3300 nM |  | 1600 nM | C=C1C=C(C)CC(C)(C)C1C/C=C/c1cc(OC)c(Br)cc1O (stereo not drawn) [GG, 1-Methylidene-6-[trans-(2'-Hydroxy-4'-bromo-5'-methoxyphenyl)-1-propenyl]-3,5,5-trimethylcyclohex-2-ene] | 61% | 65%
11 | 3570 nM |  |  | C=C1C=C(C)CC(C)(C)C1Cc1cc(OC)c(Br)cc1O (stereo not drawn) [II, 1-Methylidene-6-(2'-hydroxy-4'-bromo-5'-methoxyphenyl)methyl-3,5,5-trimethylcyclohex-2-ene] |  | 
12 |  |  |  | C=C1C=CCC(C)(C)C1Cc1cc(OC)c(Br)cc1O (stereo not drawn) [K, 1-Methylidene-6-(2'-hydroxy-4'-bromo-5'-methoxyphenyl)methyl-5,5-dimethylcyclohex-2-ene] | 70% | 70%

Row | Structure (SMILES) | IC50 [1] | Kd [2] | IC50 [3] | Efficacy (% maximal response relative to RU-486), CV-1 cells [1] | Efficacy (% maximal response relative to RU-486), T47D cells [3]
13 | C=C1CCCC(C)(C)C1Cc1cc(OC)c(Br)cc1OC(C)=O (racemic) [A, 1-Methylidene-2-(2'-acetoxy-4'-bromo-5'-methoxyphenyl)methyl-3,3-dimethylcyclohexane] | 225 nM | 100 nM | 200 nM | 55% | 70%
14 | C=C1C=C[C@@H](C)C(C)(C)[C@@H]1Cc1cc(OC)c(Br)cc1OC(C)=O (relative stereo) [N, trans-1-Methylidene-6-(2'-acetoxy-4'-bromo-5'-methoxyphenyl)methyl-4,5,5-trimethylcyclohex-2-ene] | 1000 nM | 195 nM | 325 nM | 90% | 70%
